Test results as given in patent publication US20110178104A1, “Anti-Heparin Compounds” (POLYMEDIX INC., priority 2010, published 2011).

Columns and labels:
[1] = system: fondaparinux (FONDAPX); experiment: FXa chromogenic assay (absence of plasma), fondaparinux; conditions: fondaparinux 0.02 μg/mL, absence of plasma
[2] = system: enoxaparin (ENOX); experiment: FXa chromogenic assay (absence of plasma), enoxaparin; conditions: enoxaparin 0.1 μg/mL, absence of plasma
[3] = system: unfractionated heparin (UFH); experiment: aPTT clotting assay, UFH 0.2 U/mL in plasma (Example 7); type: biochemical; conditions: UFH 0.2 U/mL in plasma
Protocol: aPTT clotting Assay. Unfractionated heparin was mixed with plasma at a final concentration of 0.2 U/mL. […] The ACL Elite Hemostasis analyzer (Beckman Coulter™) was used to add aPTT reagent (HemosIL SynthASil) to supplemented plasma. Clotting was initiated by addition of CaCl2 and time to clot was recorded.

FONDAPX (FXa) EC50 [1]	ENOX (FXa) EC50 [2] [µg/mL]	UFH (aPTT) EC50 [3]	SMILES
36.65 µg/mL	3.93	4.26 µg/mL	N=C(N)NCCC[C@@H](N)C(=O)Nc1ccc(Cl)c(C(=O)N[C@H](CCCNC(=N)N)C(=O)Nc2ccc(Cl)c(C(=O)N[C@H](CCCNC(=N)N)C(=O)Nc3ccc(Cl)c(C(=O)N[C@H](CCCNC(=N)N)C(=O)Nc4ccc(Cl)c(C(N)=O)c4)c3)c2)c1 [Compound 26]
inactive	23.71	19.76 µg/mL	CN(C)CCNC(=O)c1cc(C(=O)N[C@H]2CC[C@H](NC(=O)c3cc(C(=O)NCCN(C)C)c(OCCCCCN)cc3OCCCCCN)CC2)c(OCCCCCN)cc1OCCCCCN [Compound 5]
4.158 µg/mL	0.8434	approx 16 μg/mL	COc1ccc(NC(=O)[C@H](CCCCN)NC(=O)c2cc(NC(=O)[C@H](CCCCN)NC(=O)c3cc(NC(=O)[C@H](CCCCN)NC(=O)c4cc(NC(=O)[C@@H](N)Cc5c[nH]c6ccccc56)ccc4OC)ccc3OC)ccc2OC)cc1C(N)=O [Compound 101]
0.717 µg/mL	0.257	2.71 µg/mL	COc1ccc(NC(=O)[C@H](CCCCN)NC(=O)c2cc(NC(=O)[C@H](CCCCN)NC(=O)c3cc(NC(=O)[C@H](CCCCN)NC(=O)c4cc(NC(=O)[C@@H](N)CCCCN)ccc4OC)ccc3OC)ccc2OC)cc1C(=O)N[C@@H](Cc1ccc(O)cc1)C(=O)O [Compound 112]
>20 µg/mL	1.32	4.94 µg/mL	COc1ccc(NC(=O)[C@H](C)NC(=O)c2cc(NC(=O)[C@H](CCCCN)NC(=O)c3cc(NC(=O)[C@H](CCCCN)NC(=O)c4cc(NC(=O)[C@@H](N)CCCCN)ccc4OC)ccc3OC)ccc2OC)cc1C(N)=O [Compound 94]
>20 µg/mL	0.7967	2.44 µg/mL	COC(=O)c1cc(NC(=O)[C@H](CCCCN)NC(=O)c2cc(NC(=O)[C@H](CCCCN)NC(=O)c3cc(NC(=O)[C@H](CCCCN)NC(=O)c4cc(NC(=O)[C@@H](N)CCCCN)ccc4OC)ccc3OC)ccc2OC)ccc1OC [Compound 115]
>90 µg/mL	1.84	2.88 µg/mL	COc1ccc(NC(=O)[C@@H](CCCN)NC(=O)c2cc(NC(=O)[C@@H](CCCN)NC(=O)c3cc(NC(=O)[C@@H](CCCN)NC(=O)c4cc(NC(=O)[C@H](N)CCCN)ccc4OC)ccc3OC)ccc2OC)cc1C(N)=O [Compound 40]
15.91 µg/mL	6.35	>10 µg/mL	N=C(N)NCCCCC(=O)Nc1cc(C(F)(F)F)cc(NC(=O)c2ccc(C(=O)Nc3cc(C(F)(F)F)cc(NC(=O)CCCCNC(=N)N)c3SCCN)cc2)c1SCCN [Compound 87]
1.03 µg/mL	0.16	1.42 µg/mL	COc1ccc(NC(=O)[C@@H](CCCNC(=N)N)NC(=O)c2cc(NC(=O)[C@@H](CCCNC(=N)N)NC(=O)c3cc(NC(=O)[C@@H](CCCNC(=N)N)NC(=O)c4cc(NC(=O)[C@@H](C)NC(=O)CCCCNC(=N)N)ccc4OC)ccc3OC)ccc2OC)cc1C(N)=O [Compound 49]
3.85 µg/mL	0.16	1.65 µg/mL	COc1ccc(NC(=O)[C@@H](CCCNC(=N)N)NC(=O)c2cc(NC(=O)[C@@H](CCCNC(=N)N)NC(=O)c3cc(NC(=O)[C@@H](CCCNC(=N)N)NC(=O)c4cc(NC(=O)[C@H](N)CCCNC(=N)N)ccc4OC)ccc3OC)ccc2OC)cc1C(=O)NCCCCCN [Compound 41]
2.61 µg/mL	0.23	2.35 µg/mL	COc1ccc(NC(=O)[C@H](CCCNC(=N)N)NC(=O)c2cc(NC(=O)[C@H](CCCNC(=N)N)NC(=O)c3cc(NC(=O)[C@H](CCCNC(=N)N)NC(=O)c4cc(NC(=O)[C@@H](N)CCCNC(=N)N)ccc4OC)ccc3OC)ccc2OC)cc1C(N)=O [Compound 45]
